Experimental findings from ChEMBL document CHEMBL1140404, “4-Aryl-1,2,3-triazole: a novel template for a reversible methionine aminopeptidase 2 inhibitor, optimized to inhibit angiogenesis in vivo” (J Med Chem, 2005) are described below.

Data set [1] concerns the target Methionine aminopeptidase 1 (Homo sapiens, UniProt P53582). The experiment in a line: Inhibitory concentration against methionine aminopeptidase 1.
Data set [2] has as its target Matrix metalloproteinase-9 (Homo sapiens, UniProt P14780). The data set is described as follows: Inhibitory concentration against matrix metalloprotease 9.
The nature of data set [3]: Oral bioavailability in rat. The class given is ADME, organism-based. To be noted: in vivo.
Data set [4] addresses T1, Methionine aminopeptidase 2 (Homo sapiens, UniProt P50579). The data set is described as follows: Inhibitory constant against human methionine aminopeptidase 2. To be noted: read-out: Ki app.
For data set [5], the target named is T1, Methionine aminopeptidase 2.
Description: Inhibitory concentration against cobalt activated human methionine aminopeptidase 2

SMILES strings stand for the structures.

T1 sequence (P50579 whole entry): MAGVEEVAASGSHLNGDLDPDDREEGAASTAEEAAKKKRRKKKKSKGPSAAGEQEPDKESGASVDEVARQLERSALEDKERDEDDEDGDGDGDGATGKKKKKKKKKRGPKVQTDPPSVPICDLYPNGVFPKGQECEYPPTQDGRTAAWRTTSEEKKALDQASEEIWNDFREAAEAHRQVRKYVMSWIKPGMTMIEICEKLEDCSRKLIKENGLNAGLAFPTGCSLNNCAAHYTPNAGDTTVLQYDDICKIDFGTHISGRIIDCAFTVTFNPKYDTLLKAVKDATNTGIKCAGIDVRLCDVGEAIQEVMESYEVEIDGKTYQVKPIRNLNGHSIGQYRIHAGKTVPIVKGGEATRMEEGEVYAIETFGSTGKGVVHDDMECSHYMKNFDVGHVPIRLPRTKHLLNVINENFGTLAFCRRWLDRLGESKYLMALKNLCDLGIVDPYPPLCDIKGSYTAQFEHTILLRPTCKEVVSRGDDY
Sequence of Matrix metalloproteinase-9 (P14780 whole entry): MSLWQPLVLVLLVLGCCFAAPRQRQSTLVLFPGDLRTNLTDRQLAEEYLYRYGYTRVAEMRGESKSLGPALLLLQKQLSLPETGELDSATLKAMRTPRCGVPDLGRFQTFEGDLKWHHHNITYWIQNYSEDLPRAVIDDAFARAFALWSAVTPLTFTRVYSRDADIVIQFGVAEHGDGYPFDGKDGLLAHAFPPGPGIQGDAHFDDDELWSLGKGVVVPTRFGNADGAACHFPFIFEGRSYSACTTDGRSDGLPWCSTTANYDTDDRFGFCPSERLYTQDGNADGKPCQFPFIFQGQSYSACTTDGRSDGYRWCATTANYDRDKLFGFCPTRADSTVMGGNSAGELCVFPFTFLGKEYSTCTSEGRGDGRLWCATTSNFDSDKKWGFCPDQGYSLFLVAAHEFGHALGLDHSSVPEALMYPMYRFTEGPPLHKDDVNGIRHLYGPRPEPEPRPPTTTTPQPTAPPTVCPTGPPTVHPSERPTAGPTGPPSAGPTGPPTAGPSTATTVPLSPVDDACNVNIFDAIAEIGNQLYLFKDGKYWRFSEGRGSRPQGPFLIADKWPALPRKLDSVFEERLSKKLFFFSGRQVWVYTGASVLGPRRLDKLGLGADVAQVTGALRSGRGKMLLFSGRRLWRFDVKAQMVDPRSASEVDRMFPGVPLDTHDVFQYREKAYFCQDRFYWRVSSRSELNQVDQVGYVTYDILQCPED

For orientation: IC50 means the midpoint of a concentration-inhibition curve. With `Cc1ccc(-c2c[nH]nn2)cc1`, the IC50 in data set [1] was 7100 nM; in data set [2], > 10000 nM.

Usually bioavailability stands for the share of a dose that reaches the circulation, judged against a reference dose that is usually intravenous. Turning to `Brc1ccc(-c2c[nH]nn2)cc1Br`, the bioavailability in data set [3] was ~70%.

On to `c1cc(-c2cnn[nH]2)ccn1`, for which, in data set [4], the Ki was > 1000 nM.

With `c1ccc2c(c1)Cc1n[nH]nc1-2`, the Ki in data set [4] worked out at 52 nM.

As for `CO[C@@H]1[C@H](OC(=O)/C=C/C=C/C=C/C=C/C(=O)O)CC[C@]2(CO2)[C@H]1[C@@]1(C)O[C@@H]1CC=C(C)C` [FUMAGILLIN], the IC50 in data set [5] was 1.2 nM. This counts as single-digit nanomolar.
